Measured values as given in US12605358B2, “Composition for preventing or treating nervous system diseases comprising compound that inhibits mTOR signaling pathway as active ingredient” (ALIAD BIOPHARMA, priority 2021, dated 2026).

What was measured:
[1] = test system: 5xFAD transgenic mice; test: Neurogenesis (Sox2/DCX/NeuN staining); assay type: in vivo; details: 10 to 20 mg/kg; compared to the WT normal group; FIG. 17
Procedure: 5xFAD animals were administered with HN-1703 at three doses for 14 days to male heterozygotes aged 6 months (all born within 3 days). The behaviors of mice were measured in a dark cycle in which the mice were active while alternating light and dark in a 12-hour cycle in a breeding room chamber, and the mice were freely accessible to food and water and bred in compliance with experimental animal ethical guidelines of Kyung Hee University. In each group, the HN-1703 was intraperitoneally injected at the same time once a day in a volume of 100 μl to 12 mice in a normal group (wild type littermate), 9 5xFAD mice in a vehicle (DMSO administration), 8 5xFAD mice in a 5 mg/kg administered group, 9 5xFAD mice in a 10 mg/kg administered group, and 9 5xFAD mice in a 20 mg/kg administered group. […] Behavioral measures were measured in Y-maze, Morris Water Maze, and Passive Avoidance test for 18 days in sequence. […]
FIG. 17 illustrates confocal scanning micrographs of a subgranular zone region of the hippocampal dentate gyrus after triple staining with an NeuN antibody as a neuron marker, an Sox2 antibody as a type1 neural progenitor cell marker, and a DCX antibody as a differentiating and migrating type3 neural precursor cell marker, and quantifying the number of Sox2+/NeuN+ cells and the number of DCX+/NeuN+ cells.

[2] = test system: primary cultured neurons; test: LC3-II turnover analysis (LC3 immunoblot); assay type: cell-based, rat; details: FIG. 3B
[3] = test system: 5xFAD transgenic mice; test: NFT removal, AT8/MAP2 staining of brain slices; assay type: in vivo
Procedure: 5xFAD animals were administered with HN-1703 at three doses for 14 days to male heterozygotes aged 6 months (all born within 3 days). The behaviors of mice were measured in a dark cycle in which the mice were active while alternating light and dark in a 12-hour cycle in a breeding room chamber, and the mice were freely accessible to food and water and bred in compliance with experimental animal ethical guidelines of Kyung Hee University. In each group, the HN-1703 was intraperitoneally injected at the same time once a day in a volume of 100 μl to 12 mice in a normal group (wild type littermate), 9 5xFAD mice in a vehicle (DMSO administration), 8 5xFAD mice in a 5 mg/kg administered group, 9 5xFAD mice in a 10 mg/kg administered group, and 9 5xFAD mice in a 20 mg/kg administered group. […] In a behavioral measurement room, humidity (40 to 60%) and temperature (22 to 26° C.) were maintained, and reflected light was maintained to avoid sound and light effects. Behavioral measures were measured in Y-maze, Morris Water Maze, and Passive Avoidance test for 18 days in sequence.
A brain slice immunostaining method was modified and used as described in Heo H et al. (J Ethnopharmacol, 2009). Mice were transcardially perfused with 4% PFA. After being immersed and fixed in 4% PFA for 4 hours, the brain tissue was unfrozen in 30% sucrose, frozen in an optimal cutting temperature (OCT) mixture, and stored at −80° C. Brain tissue slices were sectioned in a coronal direction at a thickness of 35 μm. The brain tissue slices were immersed in a storage solution (30% glycerol, 30% ethylene glycol, PBS) and stored at 4° C. The stored brain slices were permeabilized in 0.5% Triton X-100 for 20 minutes and shaken in 2 N HCl for 30 minutes at 37° C. Then, the brain slices were blocked in a free-floating state for 2 hours in 15% standard serum, 3% bovine serum albumin (BSA, bio-WORLD, Dublin, OH, USA) and 0.1% Triton X-100. The slices were shaken with a first antibody for 16 hours at 4° C. […]

[4] = test system: 5xFAD transgenic mice; test: Morris water maze test; assay type: in vivo; details: 5, 10 and 20 mg/kg groups; similar to the normal group
Procedure: 5xFAD animals were administered with HN-1703 at three doses for 14 days to male heterozygotes aged 6 months (all born within 3 days). The behaviors of mice were measured in a dark cycle in which the mice were active while alternating light and dark in a 12-hour cycle in a breeding room chamber, and the mice were freely accessible to food and water and bred in compliance with experimental animal ethical guidelines of Kyung Hee University. […] Behavioral measures were measured in Y-maze, Morris Water Maze, and Passive Avoidance test for 18 days in sequence.
A Morris water maze test designed by Richard Morris to test spatial memory was performed on a round and rust-free pool with a white inner-surface (diameter 120 cm; height 60 cm). […] On the first day, the mice were trained in free swimming for 1 minute without a platform foothold, and from the second day, while the mice were trained for 1 minute to find the platform using a spatial clue above the water tank by dissolving dye in water so as not to see the foothold, 6 mice or more were set to a group and put into a quadrant once after taking a sufficient rest, and measured by a video camera. […] The captured video pictures were analyzed with a video tracking system (Ethovision water maze program, Noldus Information Technology, Wageningen, Netherlands). […]

COc1cc(OC)c2c(=O)c3cc4c(cc3oc2c1)OCO4 [HN-1703, 7,9-dimethoxy-10H-[1,3]dioxolo[4,5-b]xanthen-10-one]
DCX+ neural progenitor cells [1]: twice or more | Sox2+ neural progenitor cells [1]: more Sox2+ neural progenitor cells were observed | LC3-II formation compared to the control group ([2]; in the presence of bafilomycin A1, a lysosome mature inhibitor): significantly increased LC3-II formation | LC3-II (autophagy activation marker) compared to the control group ([2]; up to 36 hours after treating the compound): significantly increased LC3-II | decrease of NFTs compared to the 5xFAD-DMSO group ([3]; 20 mg/kg, dentate gyrus, FIG. 9): ≥ 70% | NFT (AT8 staining) ([3]; 5 to 20 mg/kg, all three brain regions examined, FIG. 9): decreased in a dose-dependent manner | number of neurons stained with NFT (AT8+/MAP2+) ([3]; dentate gyrus, FIG. 10): decreased in a dose-dependent manner | water maze latency time after 4 days of training [4]: about 35 seconds
